Laboratory results published in ChEMBL document CHEMBL1201862, “PubChem BioAssay data set” (2004).
Active and inactive are the calls of the source. For most assays here, no stated cut-off is given here; in the data, actives have a measured EC50 and inactives only a lower limit.

Assays:
[1] = DRD fibroblast viability loss – cell-based, non-viral oncogenic, luminescence, dose response (AID 1934); type: functional; settings: Homo sapiens
[2] = tested on: BJ; test: cells; type: functional, cell-based; settings: Homo sapiens
[3] = tested on: BJ; test: BJ-TERT-LT-ST fibroblast viability loss – cell-based, RAS-independent, luminescence, dose response (AID 1935); type: functional; settings: Homo sapiens;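 further: BJ fibroblasts immortalized with TERT plus LT and ST oncogenes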
[4] = tested on: BJ; test: growth inhibition of engineered Ras-driven BJ cells – cell-based, alamar blue fluorescence, cherrypicked samples, dose response (AID 2631); type: functional; settings: Homo sapiens;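 further: confirmatory dose-response assay in RAS-dependent BJ fibroblasts engineered with TERT, LT and ST, with cytotoxicity read by fluorescence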
[5] = tested on: BJ; test: BJ-TERT fibroblast viability loss – cell-based, RAS-independent, luminescence, dose response (AID 1933); type: functional; settings: Homo sapiens
[6] = viability of HCT116 lacking mutant beta-catenin – cell-based, human colon tumor, dose response (AID 1045); type: functional;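 further: HCT116 colon tumor cells with beta catenin knocked out; cells exposed to compound for 60 hours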
[7] = viability of PTEN-deleted HCT116 cells – cell-based, HCT116 PTEN knockout, dose response (AID 1047); type: functional;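 further: HCT116 colon tumor cells with PTEN knocked out; cells exposed to compound for 60 hours before readout; potency for loss of cell viability measured by luminescence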
[8] = molecular target: T1, Replicative DNA helicase DnaB (Mycobacterium tuberculosis, UniProt P9WMR3); test: DnaB intein splicing inhibitors, dose response, biochemical, cell-free fluorescence (AID 449749); type: functional
T1 sequence (P9WMR3 whole entry): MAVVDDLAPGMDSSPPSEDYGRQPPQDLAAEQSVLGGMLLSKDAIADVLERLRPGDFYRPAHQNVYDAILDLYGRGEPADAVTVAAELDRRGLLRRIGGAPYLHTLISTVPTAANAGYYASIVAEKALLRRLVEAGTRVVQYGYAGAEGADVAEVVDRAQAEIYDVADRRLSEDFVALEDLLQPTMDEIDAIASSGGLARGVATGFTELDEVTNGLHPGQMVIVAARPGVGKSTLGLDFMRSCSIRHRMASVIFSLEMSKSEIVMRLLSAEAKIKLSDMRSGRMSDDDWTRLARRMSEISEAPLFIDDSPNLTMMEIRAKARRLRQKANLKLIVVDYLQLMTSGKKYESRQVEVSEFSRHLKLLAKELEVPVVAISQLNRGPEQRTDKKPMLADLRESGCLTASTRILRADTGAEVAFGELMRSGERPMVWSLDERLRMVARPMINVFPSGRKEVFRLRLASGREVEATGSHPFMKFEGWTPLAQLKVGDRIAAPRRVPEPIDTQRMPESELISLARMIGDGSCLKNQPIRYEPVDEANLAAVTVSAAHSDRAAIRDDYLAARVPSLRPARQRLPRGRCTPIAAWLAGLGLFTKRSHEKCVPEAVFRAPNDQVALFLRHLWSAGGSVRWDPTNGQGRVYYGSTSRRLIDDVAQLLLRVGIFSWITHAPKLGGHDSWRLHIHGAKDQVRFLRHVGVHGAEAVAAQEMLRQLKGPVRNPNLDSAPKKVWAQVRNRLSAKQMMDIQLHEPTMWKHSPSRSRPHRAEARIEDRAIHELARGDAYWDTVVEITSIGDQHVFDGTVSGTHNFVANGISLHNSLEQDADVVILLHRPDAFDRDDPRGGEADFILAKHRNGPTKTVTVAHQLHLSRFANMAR

[9] = molecular target: T2, Protein RecA (Mycobacterium tuberculosis, UniProt P9WHJ3); test: Fluorescence Cell-Free Homogeneous Dose Retest to Identify Inhibitors of RecA-Intein Splicing Activity. [Related pubchem assays (depositor defined):AID2097, AID2223, AID489010, AID492950]; type: functional
T2 sequence (P9WHJ3 whole entry): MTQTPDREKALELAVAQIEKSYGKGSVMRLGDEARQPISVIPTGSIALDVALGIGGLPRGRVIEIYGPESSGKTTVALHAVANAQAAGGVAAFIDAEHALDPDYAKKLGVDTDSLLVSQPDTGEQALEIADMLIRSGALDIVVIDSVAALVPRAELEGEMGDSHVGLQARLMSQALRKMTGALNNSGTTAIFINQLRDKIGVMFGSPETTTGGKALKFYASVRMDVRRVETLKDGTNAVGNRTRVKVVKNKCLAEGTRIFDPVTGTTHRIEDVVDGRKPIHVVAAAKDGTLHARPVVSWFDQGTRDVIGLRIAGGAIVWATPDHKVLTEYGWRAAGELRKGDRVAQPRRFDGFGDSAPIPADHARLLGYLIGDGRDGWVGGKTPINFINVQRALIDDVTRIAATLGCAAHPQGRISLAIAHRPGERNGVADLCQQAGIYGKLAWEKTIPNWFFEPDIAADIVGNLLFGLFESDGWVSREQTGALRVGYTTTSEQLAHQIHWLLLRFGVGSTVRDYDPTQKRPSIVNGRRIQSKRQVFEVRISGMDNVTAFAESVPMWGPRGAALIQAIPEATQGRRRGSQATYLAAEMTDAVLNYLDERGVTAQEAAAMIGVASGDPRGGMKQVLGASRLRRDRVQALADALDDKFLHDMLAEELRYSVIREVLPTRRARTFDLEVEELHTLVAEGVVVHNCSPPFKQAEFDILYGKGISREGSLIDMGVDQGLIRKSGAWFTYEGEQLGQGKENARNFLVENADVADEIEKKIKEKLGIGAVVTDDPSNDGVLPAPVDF

[10] = viability of uninfected HEp-2 cells – cell-based, HTS, cytotoxicity control for RSV inhibitor project, dose response (AID 2410); type: functional; settings: human respiratory syncytial virus

| Structure (SMILES) | EC50 [1] | EC50 [2] | EC50 [3] | EC50 [4] | EC50 [5] | EC50 [6] | EC50 [7] | AC50 [8] | EC50 [9] | CC50 [10] |
| --- | --- | --- | --- | --- | --- | --- | --- | --- | --- | --- |
| CCCCc1c(C)c(C#N)c2nc3ccccc3n2c1Cl | 2.76 µM (active) | 2.85 µM (active) | 1.75 µM (inconclusive) | 0.57 µM (active) | 2.22 µM (active) | 1.52 µM (active) | 1.88 µM (active) |  |  |  |
| Cc1ccc(C2=NN(C(=O)CCl)C(c3ccco3)C2)o1 (centres undefined) | 5.27 µM (active) |  | 11.1 µM (inconclusive) | 3.42 µM (active) | 3.33 µM (inconclusive) |  |  | 30.3 µM (active) | 5.58 µM (active) |  |
| COc1cc([C@H]2c3[nH]c4ccccc4c3C[C@H]3C(=O)N4[C@@H](c5cc(OC)c(OC)c(OC)c5)c5[nH]c6ccccc6c5C[C@H]4C(=O)N23)cc(OC)c1OC | 5.02 µM (active) | > 150 µM (inconclusive) | 14.3 µM (inconclusive) | > 133 µM (inactive) | 3.48 µM (active) |  |  |  |  | 19.1 µM (active) |
